From PubChem BioAssay (NCI)
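GI50 = concentration required for 50% inhibition of growth. TGI marks complete inhibition of growth.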

How the values were obtained:
Assay in all cases: NCI-60 cell line screen, 384-well format
NCI-H460 NSCLC = test system: NCI-H460 NSCLC
UACC-257 melanoma = test system: UACC-257 melanoma
SN12C renal = test system: SN12C renal
NCI/ADR-RES ovarian = test system: NCI/ADR-RES ovarian
MDA-MB-468 breast = test system: MDA-MB-468 breast
EKVX NSCLC = test system: EKVX NSCLC
MCF7 breast = test system: MCF7 breast
OVCAR-4 ovarian = test system: OVCAR-4 ovarian
KM12 colon = test system: KM12 colon
NCI-H226 lung = test system: NCI-H226 lung
CCRF-CEM leukemia = test system: CCRF-CEM leukemia
UACC-62 melanoma = test system: UACC-62 melanoma
U251 glioblastoma = test system: U251 glioblastoma
BT-549 breast = test system: BT-549 breast
SF-295 CNS = test system: SF-295 CNS
786-0 renal = test system: 786-0 renal
OVCAR-3 ovarian = test system: OVCAR-3 ovarian
IGROV1 ovarian = test system: IGROV1 ovarian
SF-268 CNS = test system: SF-268 CNS
HT29 colon = test system: HT29 colon
OVCAR-8 ovarian = test system: OVCAR-8 ovarian
A549 NSCLC = test system: A549 NSCLC
LOX IMVI melanoma = test system: LOX IMVI melanoma
NCI-H23 lung = test system: NCI-H23 lung
HOP-92 NSCLC = test system: HOP-92 NSCLC
SR leukemia = test system: SR leukemia
TK-10 renal = test system: TK-10 renal
HCC-2998 colon = test system: HCC-2998 colon
SW-620 colon = test system: SW-620 colon
SF-539 CNS = test system: SF-539 CNS
COLO 205 colon = test system: COLO 205 colon
T-47D breast = test system: T-47D breast
DU-145 prostate = test system: DU-145 prostate
PC-3 prostate = test system: PC-3 prostate
MDA-MB-231 breast = test system: MDA-MB-231 breast
NCI-H522 lung = test system: NCI-H522 lung
HCT-15 colon = test system: HCT-15 colon
OVCAR-5 ovarian = test system: OVCAR-5 ovarian
MALME-3M melanoma = test system: MALME-3M melanoma
HS 578T breast = test system: HS 578T breast
RXF 393 renal = test system: RXF 393 renal
CAKI-1 renal = test system: CAKI-1 renal
SK-OV-3 ovarian = test system: SK-OV-3 ovarian
HL-60(TB) leukemia = test system: HL-60(TB) leukemia
RPMI-8226 leukemia = test system: RPMI-8226 leukemia
A498 renal = test system: A498 renal
SK-MEL-2 melanoma = test system: SK-MEL-2 melanoma

## COCc1c(-c2cc3cc(C)cc(OC)c3s2)c2c(N)ncnn2c1CN1CCNC(=O)C1
NCI-H460 NSCLC
  GI50: 4.62 µM
  TGI: > 96.2 µM
UACC-257 melanoma
  GI50: 29.9 µM
  TGI: > 100 µM
SN12C renal
  GI50: 7.95 µM
  TGI: > 73.6 µM
NCI/ADR-RES ovarian
  GI50: > 100 µM
  TGI: > 100 µM
MDA-MB-468 breast
  GI50: 2.01 µM
  TGI: 7.39 µM
EKVX NSCLC
  GI50: 5.72 µM
  TGI: > 69.8 µM
MCF7 breast
  GI50: 5.56 µM
  TGI: > 100 µM
OVCAR-4 ovarian
  GI50: 13.9 µM
  TGI: > 100 µM
KM12 colon
  GI50: 9.87 µM
  TGI: > 100 µM
NCI-H226 lung
  GI50: 1.26 µM
  TGI: 21.7 µM
CCRF-CEM leukemia
  GI50: 5.68 µM
  TGI: > 52.5 µM
UACC-62 melanoma
  GI50: 6.36 µM
  TGI: 37 µM
U251 glioblastoma
  GI50: 12.1 µM
  TGI: > 100 µM
BT-549 breast
  GI50: 0.385 µM
  TGI: 5.45 µM
SF-295 CNS
  GI50: 18.2 µM
  TGI: > 100 µM
786-0 renal
  GI50: 14.2 µM
  TGI: > 93.2 µM
OVCAR-3 ovarian
  GI50: 5.38 µM
  TGI: > 75.2 µM
IGROV1 ovarian
  GI50: 4.19 µM
  TGI: 36.8 µM
SF-268 CNS
  GI50: 8.67 µM
  TGI: > 81.6 µM
HT29 colon
  GI50: 12 µM
  TGI: > 100 µM
OVCAR-8 ovarian
  GI50: 17.8 µM
  TGI: > 100 µM
A549 NSCLC
  GI50: 5.49 µM
  TGI: > 100 µM
LOX IMVI melanoma
  GI50: 5.57 µM
  TGI: 25.6 µM
NCI-H23 lung
  GI50: 4.13 µM
  TGI: 28.9 µM
HOP-92 NSCLC
  GI50: 2 µM
  TGI: 18.9 µM
SR leukemia
  GI50: 3.97 µM
  TGI: 12.9 µM
TK-10 renal
  GI50: 7.97 µM
  TGI: 70.3 µM
HCC-2998 colon
  GI50: 19.1 µM
  TGI: > 93.1 µM
SW-620 colon
  GI50: 3.27 µM
  TGI: > 23.1 µM
SF-539 CNS
  GI50: 6.08 µM
  TGI: > 58.3 µM
COLO 205 colon
  GI50: 12 µM
  TGI: > 100 µM
T-47D breast
  GI50: 15.1 µM
  TGI: > 94.7 µM
DU-145 prostate
  GI50: 6.79 µM
  TGI: > 100 µM
PC-3 prostate
  GI50: 23.2 µM
  TGI: > 100 µM
MDA-MB-231 breast
  GI50: 5.63 µM
  TGI: > 72.1 µM
NCI-H522 lung
  GI50: 3.66 µM
  TGI: 30.6 µM
HCT-15 colon
  GI50: 5.39 µM
  TGI: > 100 µM
OVCAR-5 ovarian
  GI50: 10.3 µM
  TGI: > 79.5 µM
MALME-3M melanoma
  GI50: 4.55 µM
  TGI: 32.6 µM
HS 578T breast
  GI50: 3.76 µM
  TGI: 22.4 µM
RXF 393 renal
  GI50: 1.19 µM
  TGI: 8.32 µM
CAKI-1 renal
  GI50: 3.41 µM
  TGI: 15.1 µM
SK-OV-3 ovarian
  GI50: 2.4 µM
  TGI: 8.99 µM
HL-60(TB) leukemia
  GI50: 7.53 µM
  TGI: 21.8 µM
RPMI-8226 leukemia
  GI50: 1.87 µM
  TGI: 7.59 µM
A498 renal
  GI50: 3.32 µM
  TGI: 40.5 µM
SK-MEL-2 melanoma
  GI50: 4.38 µM
  TGI: 13.6 µM
